Values quoted from earlier work as cited in paper PMC4931242, “Enhancing digestibility and ethanol yield of Populus wood via expression of an engineered monolignol 4-O-methyltransferase” (Nature Communications, 2016).

Biological target: T1, MOMT4 (engineered monolignol 4-O-methyltransferase) (Clarkia breweri, UniProt O04385, T133L/E165I/H169F/F175I)
T1 construct: gene IEMT1; engineered quadruple active-site variant of isoeugenol 4-O-methyltransferase; purified enzyme
Test: 4-O-methylation kinetics
Assay type: biochemical
Conditions: co-substrate SAM; s.d., n=3

T1 sequence (O04385 whole entry T133L/E165I/H169F/F175I): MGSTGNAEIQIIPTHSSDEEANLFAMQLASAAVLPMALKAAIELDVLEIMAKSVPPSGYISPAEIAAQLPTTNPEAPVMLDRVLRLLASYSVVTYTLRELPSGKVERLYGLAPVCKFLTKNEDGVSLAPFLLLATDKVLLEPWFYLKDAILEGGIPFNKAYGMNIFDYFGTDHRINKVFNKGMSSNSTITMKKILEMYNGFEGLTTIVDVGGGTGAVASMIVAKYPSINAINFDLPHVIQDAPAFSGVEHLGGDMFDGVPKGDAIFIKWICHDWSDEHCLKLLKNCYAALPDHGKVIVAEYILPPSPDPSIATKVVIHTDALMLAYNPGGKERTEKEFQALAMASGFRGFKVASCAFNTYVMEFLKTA

| SMILES | Km [µM] |
| --- | --- |
| COc1cc(/C=C/CO)ccc1O [coniferyl alcohol] | 193 ± 24.5 |
| COc1cc(/C=C/CO)cc(OC)c1O [sinapyl alcohol] | 68.1 ± 11.1 |
